Values quoted from earlier work, collected in patent US20040087564A1, “Delivery composition and method” (priority 2002, published 2004).

## C[C@]12CC[C@H]3[C@@H](CCC4=CC(=O)CC[C@@]43C)[C@@H]1CC[C@@H]2O [testosterone]
In rabbits
  true testosterone disposition half-life: ~15 min
Male rabbit, Bourget et al., Steroids 43:225-233 (1984)
  testosterone clearance: 29.2 mL/min/kg
